Measurements reported in patent publication US12036226B2, “Methods of treating subjects having diabetes with chronic kidney disease” (Poxel SA, priority 2018, dated 2024).

Tested on: acute renal failure (ARF) rat model
Conditions: for plasma glucose: normal rats, 180 minutes, imeglimin and metformin 100 mg/h/kg, phenformin 50 mg/h/kg i.v.
Description: The creatinine level, correlated with the degree of the renal function failure, was tested for each rat 7 days after the first injection of gentamicin. […] The creatinine level was determined on the Monarch Chemistry Systems using the IL Test creatinine in rat plasma samples. This monochromatic analysis is based on the formation of a red colored complex between creatinine and picric acid under alkaline conditions.

Structure (SMILES) | plasma glucose [mmol/L] | effect on plasma [HCO3−] (rat, in vivo) | effect on plasma lactate (rat, in vivo) | effect on plasma lactate level (rat, in vivo) | lactic acidosis (rat, in vivo) | plasma H+ concentration / metabolic acidosis signs (rat, in vivo) | plasma accumulation (rat, in vivo) | plasma glucose after sharp fall (rat, in vivo) [mmol/L]
CN(C)C(=N)N=C(N)N [metformin] | 4 ± 0.7 | significantly decreased plasma concentration of [HCO3^−] | significantly increased plasma lactate | significantly increased lactatemia | induced lactic acidosis | increased significantly plasma H+ concentration | plasma accumulation of metformin and imeglimin was observed | 1.9 ± 1
[H]/N=C(/N)N/C(=N/[H])NCCc1ccccc1 [phenformin] | 2.9 ± 1 | significantly decreased plasma concentration of [HCO3^−] | significantly increased plasma lactate | significantly increased lactatemia | induced lactic acidosis | increased significantly plasma H+ concentration |  | 2.4 ± 1.1
